Where two headings read alike, the source gives them in different places.
What was measured:
KB cells = assay: Cytotoxicity: 50% reduction in cell number of KB cells after three day incubation; type: cell-based; details: Homo sapiens, 72 h, read-out: Cytotoxicity ID50 KB
Procedure: (§1) The compounds of the present invention were tested for their degree of inhibitory activity on human type II DNA topoisomerase, their effect on the formation of protein-linked DNA breakage, and their cytotoxicity. The inhibitory activity for compounds of the present invention correlated with the ability of the compounds to cause DNA strand breakage. […] For a description of the assays used with respect to the compounds listed in Tables 1 to 5 see Thurston, L.S., Irie, H., Tani, S., Han, F. S., Liu, Z. C., Cheng, Y.C., and Lee, K. H., Antitumor Agents 78. Inhibition of Human DNA Topoisomerase II by Podophyllotoxin and Peltatin Analogues, J. Med. Chem. 29, 1547 (1986), and the references cited therein, herein incorporated by reference.
in cell number after three day incubation.

[1] = target: Human DNA topoisomerase II; assay: DNA topoisomerase II assay (P4 unknotting reaction); type: biochemical; details: read-out: Inhibition of DNA Topoisomerase II Activity ID50
Procedure: as §1, with “cytotoxicity.” for “cytotoxicity. The inhibitory activity for compounds of the present invention correlated with the ability of the compounds to cause DNA strand breakage.”
Human DNA topoisomerase II was isolated from peripheral blast cells of a patient with acute leukemia. The isolation procedure is described in Thurston, L., Imakura, Y., Haruna, M., Li, Z. C., Liu, S. Y., and Lee, K. H., J. Med. Chem., 31, […] (1988) and is a partial combination of the procedure described in Goto, T., Laiapia, P. and Wang, J., J. Biol. Chem., 259, 10422 (1984) and Halligan, B., Edwards, K., and Liu, L., J. Biol. Chem., 260, 2475 (1985) which are herein specifically incorporated by reference.
Drugs were dissolved in Me2 SO at a concentration of 20 mM as the stock solution and diluted before use with water to the desired concentration of each drug.
The P4 unknotting reaction was a modification of the procedure described by Hseih, T., J. Biol. Chem., 258, 8413 (1985), which is herein specifically incorporated by reference.
The reaction mixture (20 μL), which contained 50 mM HEPES, pH 7.0, 50 mM KCI, 100 mM NaCl, 0.1 mM EDTA, 10 mM MgCl2, 1.0 mM ATP, 50 μg/mL bovine serum albumin, 0.4 μg P4knotted DNA, and enzyme, was incubated with or without drugs.
The reaction mixture was incubated at 37° C. for 30 min and terminated by adding 5.0 μl of a stop solution (2% sodium dodecyl sulfate, 20% glycerol, 0.05% bromophenol blue). These samples were loaded onto a 1% agarose gel and electrophoresed at 55 V overnight with an electrophoresis buffer that contained 90 mM Tris-boric acid, pH 8.3, and 2.5 mM EDTA. At completion, the gel was stained in 0.5 μg/mL of ethidium bromide. Then a photograph was taken of the DNA bands visualized with fluorescence induced by a long-wavelength UV lamp. […]

[2] = Table 2, KB cells, three day incubation
[3] = Table 2, based on degree of inhibition at 10, 25, 50 and 100 μM
[4] = Table 3, KB cells, three day incubation
[5] = Table 3, based on degree of inhibition at 20, 25, 50 and 100 μM
[6] = Table 4, KB cells, three day incubation
[7] = Table 4, based on degree of inhibition at 10, 25, 50 and 100 μM
[8] = Table 1, KB cells, three day incubation
[9] = Table 1, based on degree of inhibition at 25, 50, and 100 μM

## COc1cc(C2c3cc4c(cc3C(Nc3ccc(C#N)cc3)C3COC(=O)C23)OCO4)cc(O)c1O (stereo not drawn) [Example 22, 3'.4'-O-Didemethyl-4β-(4"-cyanoanilino)-4-desoxypodophyllotoxin]
KB cells; [2]
  IC50: 1.5 µM
[1]; [3]
  IC50: 10 µM

## CCOC(=O)c1ccc(N[C@@H]2c3cc(OC)c(OC)cc3[C@@H](c3cc(OC)c(O)c(OC)c3)[C@H]3C(=O)OC[C@@H]32)cc1 [Example 33, 6,7-O-demethylene-6,7-O-dimethyl-4'-O-demethyl-4β-[4"-(ethoxycarbonyl)anilino]-4-desoxypodophyllotoxin]
KB cells; [4]
  IC50: < 0.4 µM
[1]; [5]
  IC50: 100 µM

## COc1cc([C@@H]2c3cc4c(cc3[C@@H](NC(=O)c3cccc(N)c3)[C@H]3COC(=O)[C@H]23)OCO4)cc(OC)c1O [Example 42, 4'-O-Demethyl-4β-[(3"-aminobenzoyl)amino]-4-desoxypodophyllotoxin]
KB cells; [6]
  IC50: 0.42 µM
[1]; [7]
  IC50: 25 µM

## COc1cc(C2c3cc4c(cc3C(NCc3ccccc3)C3COC(=O)C23)OCO4)cc(OC)c1O (stereo not drawn) [Example 3, 4'-O-Demethyl-4β-benzylamino-4-desoxypodophyllotoxin]
KB cells; [8]
  IC50: 2.2 µM
[1]; [9]
  IC50: 25 µM

## COc1cc([C@@H]2c3cc4c(cc3[C@@H](NC(=O)c3ccccc3O)[C@H]3COC(=O)[C@H]23)OCO4)cc(OC)c1O [Example 35, 4'-O-Demethyl-4β-[(2-hydroxylbenzoyl)amino]-4-desoxypodophyllotoxin]
KB cells; [6]
  IC50: < 1 µM
[1]; [7]
  IC50: 50 µM

## COc1cc(C2c3cc4c(cc3C(NCc3ccccc3[N+](=O)[O-])C3COC(=O)C23)OCO4)cc(OC)c1O (stereo not drawn) [Example 6, 4'-O-Demethyl-4β-(2"-nitrobenzylamino)-4-desoxypodophyllotoxin]
KB cells; [8]
  IC50: 1.8 µM
[1]; [9]
  IC50: 50 µM

## COc1cc([C@@H]2c3cc4c(cc3[C@@H](NC(=O)c3ccc(C#N)cc3)[C@H]3COC(=O)[C@H]23)OCO4)cc(OC)c1O [Example 40, 4'-O-Demethyl-4β-[(4"-cyanobenzoyl)amino]-4-desoxypodophyllotoxin]
KB cells; [6]
  IC50: 0.1 µM
[1]; [7]
  IC50: 25 µM

## COc1cc(C2c3cc4c(cc3C(NCc3cccc(N)c3)C3COC(=O)C23)OCO4)cc(OC)c1O (stereo not drawn) [Example 13, 4'-O-Demethyl-4β-(3"-aminobenzylamino)-4-desoxypodophyllotoxin]
KB cells; [8]
  IC50: < 0.4 µM
[1]; [9]
  IC50: 25 µM

## COc1cc([C@@H]2c3cc4c(cc3[C@@H](NC(=O)c3ccc(C(C)=O)cc3)[C@H]3COC(=O)[C@H]23)OCO4)cc(OC)c1O [Example 38]
KB cells; [6]
  IC50: 1 µM
[1]; [7]
  IC50: 50 µM

## COc1cc([C@@H]2c3cc4c(cc3[C@@H](NC(=O)c3ccc(F)cc3)[C@H]3COC(=O)[C@H]23)OCO4)cc(OC)c1O [Example 36, 4'-O-Demethyl-4β-[(4"-fluorobenzoyl)amino]-4-desoxypodophyllotoxin]
KB cells; [6]
  IC50: 0.34 µM
[1]; [7]
  IC50: 25 µM

## COc1cc(C2c3cc4c(cc3C(NCc3cccc([N+](=O)[O-])c3)C3COC(=O)C23)OCO4)cc(OC)c1O (stereo not drawn) [Example 5, 4'-O-Demethyl-4β-(3"-nitrobenzylamino)-4-desoxypodophyllotoxin]
KB cells; [8]
  IC50: < 0.4 µM
[1]; [9]
  IC50: 25 µM

## COc1cc(C2c3cc4c(cc3C(NCc3ccccc3N)C3COC(=O)C23)OCO4)cc(OC)c1O (stereo not shown) [Example 14]
KB cells; [8]
  IC50: < 0.4 µM
[1]; [9]
  IC50: 25 µM

## CCOC(=O)c1ccc(N[C@@H]2c3cc4c(cc3[C@@H](C3=CC(=O)C(=O)C(OC)=C3)[C@H]3C(=O)OC[C@@H]32)OCO4)cc1 [Example 45, 3',4'-Didemethoxy-3',4'-dioxo-4β-[(4"-ethoxycarbonyl)anilino]-4-desoxypodophyllotoxin]
KB cells; Table 5, KB cells, three day incubation
  IC50: 1.1 µM
[1]; Table 5, based on degree of inhibition at 10, 25, 50 and 100 μM
  IC50: 25 µM

## COc1cc(C2c3cc4c(cc3C(Nc3ccccc3)C3COC(=O)C23)OCO4)cc(O)c1O (stereo not drawn) [Example 17, 3',4'-O-Didemethyl-4β-anilino-4-desoxypodophyllotoxin]
KB cells; [2]
  IC50: 1.7 µM
[1]; [3]
  IC50: 25 µM

## COc1cc(C2c3cc4c(cc3C(Nc3ccc5c(c3)OCCO5)C3COC(=O)C23)OCO4)cc(O)c1O (stereo not shown) [Example 20]
KB cells; [2]
  IC50: 2.3 µM
[1]; [3]
  IC50: 10 µM

## COc1cc(C2c3cc4c(cc3C(NCc3ccccc3F)C3COC(=O)C23)OCO4)cc(OC)c1O (stereo not drawn) [Example 7, 4-O-Demethyl-4β-(2"-fluorobenzylamino)-4-desoxypodophyllotoxin]
KB cells; [8]
  IC50: 1.9 µM
[1]; [9]
  IC50: 100 µM

## COc1cc([C@@H]2c3cc4c(cc3[C@@H](NC(=O)c3ccc(OC(C)=O)cc3)[C@H]3COC(=O)[C@H]23)OCO4)cc(OC)c1O [Example 37, 4'-O-Demethyl-4β-[(4-acetoxybenoyl)amino]-4-desoxypodophyllotoxin]
KB cells; [6]
  IC50: 0.61 µM
[1]; [7]
  IC50: 25 µM

## COc1cc(C2c3cc4c(cc3C(Nc3ccc(F)cc3)C3COC(=O)C23)OCO4)cc(O)c1O (stereo not drawn) [Example 18, 3',4'-O-didemethyl-4β-(4"-floroanilino)-4-desoxypodophyllotoxin]
KB cells; [2]
  IC50: 3 µM
[1]; [3]
  IC50: 10 µM

## COc1cc([C@@H]2c3cc4c(cc3[C@@H](NC(=O)c3ccccc3)[C@H]3COC(=O)[C@H]23)OCO4)cc(OC)c1O [Example 34, 4'-O-Demethyl-4β-(benzoylamino)-4-desoxypodophyllotoxin]
KB cells; [6]
  IC50: 0.64 µM
[1]; [7]
  IC50: > 50 µM

## COc1cc([C@@H]2c3cc4c(cc3[C@@H](NC(=O)c3cccc([N+](=O)[O-])c3)[C@H]3COC(=O)[C@H]23)OCO4)cc(OC)c1O [Example 41, 4'-O-Demethyl-4β-[(3"-nitrobenzoyl)amino]-4-desoxypodophyllotoxin]
KB cells; [6]
  IC50: 0.33 µM
[1]; [7]
  IC50: 10 µM

## COC(=O)c1cccc(N[C@@H]2c3cc4c(cc3[C@@H](c3cc(O)c(O)c(OC)c3)[C@H]3C(=O)OC[C@@H]32)OCO4)c1 [Example 21, 3'.4'-O-Didemethyl-4β-(3"-methoxycarbonylanilino)-4-desoxypodophyllotoxin]
KB cells; [2]
  IC50: 1.9 µM
[1]; [3]
  IC50: 1 µM

## COc1cc2c(cc1OC)[C@@H](Nc1ccc(F)cc1)[C@H]1COC(=O)[C@@H]1[C@@H]2c1cc(OC)c(O)c(OC)c1 [Example 31, 6,7-O-demethylene-6,7-O-dimethyl-4'-O-demethyl-4β-(4"-fluoroanilino)-4-desoxypodophyllotoxin]
KB cells; [4]
  IC50: 0.4 µM
[1]; [5]
  IC50: 50 µM

## COc1cc([C@@H]2c3cc(O)c(O)cc3[C@@H](Nc3ccccc3)[C@H]3COC(=O)[C@H]23)cc(OC)c1O [Example 26, 6,7-O-Demethylene-4'-O-demethyl-4β-anilino-4-desoxypophyllotoxin]
KB cells; KB
  IC50: > 1 µM
[1]; [5]
  IC50: 25 µM

## COc1cc([C@@H]2c3cc(O)c(O)cc3[C@@H](Nc3ccc(F)cc3)[C@H]3COC(=O)[C@H]23)cc(OC)c1O [Example 30, 6,7-O-Demethylene-4'-O-demethyl-4β-(fluoroanilino)-4-desoxypodophyllotoxin]
KB cells; [4]
  IC50: > 1 µM
[1]; [5]
  IC50: 25 µM

## COc1cc(C2c3cc4c(cc3C(NCc3ccc([N+](=O)[O-])cc3)C3COC(=O)C23)OCO4)cc(OC)c1O (stereo not drawn) [Example 4, 4'-O-Demethyl-4β-(4"-nitrobenzylamino)-4-desoxypodophyllotoxin]
KB cells; [8]
  IC50: 0.4 µM
[1]; [9]
  IC50: 50 µM

## COc1cc(C2c3cc4c(cc3C(Nc3cccc(O)c3)C3COC(=O)C23)OCO4)cc(O)c1O (stereo not drawn) [Example 19, 3',4'-O-Didemethyl-4β-(3"-hydroxyanilino)-4-desoxypodophyllotoxin]
KB cells; [2]
  IC50: 1.6 µM
[1]; [3]
  IC50: 10 µM

Reference: patent US5332811A, “Etopside analogs” (priority 1991, dated 1994)
